Converted amounts (≈) assume the structure as drawn. Read-outs that look alike come from different tables or passages of the source. Marks after values point to notes of the source that are not given here.
Experiments:
[1] = test system: P388 mouse leukemia cells; assay: P388 mouse leukemia cell assay; assay type: cell-based; conditions: 48 hours
Method: P388 mouse leukemia cells are grown in Dulbecco's minimum essential medium with Earle's salts (MEM) with 10% horse serum, 4 mM glutamine, and 20 ug/ml gentamicin (Biologos, Inc.). Cells are incubated in 10% CO2 and subcultured 2 times per week. 1. Add compound to each well of a 24-well plate or tube and allow solvent to evaporate to dryness. 2. Add 2 ml (1.2×10^5) cells to each well or tube and mix. 3. Incubate in 10% CO2 at 37° for 48 hours. 4. Read plates with an inverted microscope, scoring activity from 1+ to 4+ as follows: ND (not detectable),>90%; 1+, 75-90%; 2+, 50-74%; 3+, 25-49%; 4+, <25% of control growth. Cell counts are performed on each tube and results are reported as percent of control. Positive control--Vinblastine or Vincristine in aqueous solution.

[2] = test system: HCT-8 human colon tumor cells; assay: Human tumor cell line assay, HCT-8 colon; assay type: cell-based; conditions: 120 hours, read-out: Antitumor activity, HCT-8
Method: (§1) HCT-8 human colon tumor cells are grown in RPM1 1640 medium (GIBCO). A-549 human lung carcinoma cells are cultured in Dulbecco medium (Biologos, Inc.). MCF-7, MDA-MB 231 and T47D human breast carcinoma cells are grown in Eagles MEM medium. All media are supplemented with 10% fetal bovine serum and contain 50 μg/ml gentamicin. All human tumor cell lines are incubated in 5% CO2 at 37° and subcultured once a week. The seeding levels are 350,000 MCF-7 cells, 60,000 HCT-8 cells and 300,000 A-549 cells per T25 flask.
(§2) 2. Incubate in 5% CO2 for 48 hours.
(§3) 3. Add compound (50 μg)to each well and incubate for an additional 120 hours.
(§4) 4. Discard medium and stain with methylene blue (HCT-8) or crystal violet (A549 and MCF-7) for 30 minutes.
(§5) 5. Compare cell density of drug-treated well with that of the control (no drug added) as follows: ND (not detectable), >90%; 1+, 75-90%; 2+, 50-74%; 3+, 25-49%, 4+, <25% of control growth.

[3] = test system: A-549 human lung carcinoma cells; assay: Human tumor cell line assay, A-549 lung; assay type: cell-based; conditions: 120 hours, read-out: Antitumor activity, A-549
Method: as §1, §2, §3, §4, §5

[4] = test system: MDA-MB 231 human breast carcinoma cells; assay: Human tumor cell line assay, MDAMB mammary; assay type: cell-based; conditions: 120 hours, read-out: Antitumor activity, MDAMB
Method: as §1, §2, §3, §4, §5

human tumor cell lines = assay: Human tumor cell line assay (cell lines together); assay type: cell-based; conditions: 120 h, in concentrations of at least 10 μg/ml, read-out: concentrations with good activity against human tumor cell lines
Method: as §1, §2, §3, §4, §5

VSV = assay type: cell-based, vesicular stomatitis virus
HSV-1 = assay: Antiviral disc assay, HSV-1 in CV-1 cells; assay type: cell-based, herpes simplex type 1
CV-1 cells = assay: Cytotoxicity in the antiviral disc assay

## C[C@]12C[C@@H](O)C(=O)[C@](C)(CO)[C@@H]1CC[C@@]1(C)c3cocc3CC[C@H]21 [Composition 1, isospongiadiol]
[1]
  IC50: 5 µg/mL (≈ 15 µM)
[2]; dose 1 μg/ml
  activity at 1 µg/mL: > 90%
[2]; dose 10 μg/ml
  activity at 10 µg/mL: 25 to 49%
[2]; dose 50 μg/ml
  activity at 50 µg/mL: < 25%
[3]; A549, dose 1 μg/ml
  activity at 1 µg/mL: > 90%
[3]; A549, dose 10 μg/ml
  activity at 10 µg/mL: 25 to 49%
[3]; A549, dose 50 μg/ml
  activity at 50 µg/mL: < 25%
[4]; dose 1 μg/ml
  activity at 1 µg/mL: > 90%
[4]; dose 10 μg/ml
  activity at 10 µg/mL: 25 to 49%
[4]; dose 50 μg/ml
  activity at 50 µg/mL: < 25%
Human tumor cell lines
  minimal effective concentration: ≥ 10 µg/mL
VSV; 20 μg/disk
  VSV Activity: +
HSV-1; 2 μg/disk
  HSV-1 Activity: ++
HSV-1; 20 μg/disk
  HSV-1 Activity: +++
CV-1 cells; 2 μg/disk
  Cytotoxicity: 0*
CV-1 cells; 20 μg/disk
  Cytotoxicity: 0*

## C[C@]12CC(=O)[C@H](O)[C@](C)(CO)[C@@H]1CC[C@@]1(C)c3cocc3CC[C@H]21 [Composition 3, epispongiadiol]
[1]
  IC50: 8 µg/mL (≈ 24.1 µM)
VSV; 20 μg/disk
  VSV Activity: +
HSV-1; 6.25 μg/disk
  HSV-1 Activity: +
HSV-1; 12.5 μg/disk
  HSV-1 Activity: ++

## C[C@]12CC(=O)[C@@H](O)[C@](C)(CO)[C@@H]1CC[C@@]1(C)c3cocc3CC[C@H]21 [Composition 2, spongiadiol]
[1]
  IC50: 0.5 µg/mL (≈ 1.5 µM)
VSV; 0.5 μg/disk
  VSV Activity: ++
VSV; 1 μg/disk
  VSV Activity: +++
HSV-1; 0.5 μg/disk
  HSV-1 Activity: +++

Reference: US4801607A, “Antiviral furanoditerpenoids” (Harbor Branch Oceanographic Institution, Inc., priority 1987, dated 1989)
